Measured values from patent US20240252503A1, “METHODS OF TREATMENT” (Arena Pharmaceuticals, Inc., priority 2021, published 2024).

Legend:
[1] = Phase 1 single-dose escalation study, pharmacokinetics; format: in vivo, human; settings: for half-life compared with parent compound: after single oral dose of Compound 1, healthy subjects
Protocol: (§1) A phase 1, randomized, double-blind, placebo-controlled, single-dose escalation study was conducted to assess the tolerability, PK, and PD of Compound 1 doses of 1 to 320 mg administered orally as a single dose to a total of 91 healthy subjects.

[2] = molecular target: human 5-HT2A (Homo sapiens, UniProt P28223); assay: Receptor affinity, 5-HT2A; format: binding
From the text: (§2) M1 refers to N-(4-(2-(2-hydroxyethylamino)ethoxy)-3-(1-methyl-1H-pyrazol-5-yl)phenyl)-3-methoxybenzamide. M2 refers to N-(4-(2-aminoethoxy)-3-(1-methyl-1H-pyrazol-5-yl)phenyl)-3-methoxybenzamide.

[3] = molecular target: T1, 5-HT2C receptor (Homo sapiens, UniProt P28335); assay: Receptor affinity, 5-HT2C; format: binding
T1 sequence (P28335 33-458): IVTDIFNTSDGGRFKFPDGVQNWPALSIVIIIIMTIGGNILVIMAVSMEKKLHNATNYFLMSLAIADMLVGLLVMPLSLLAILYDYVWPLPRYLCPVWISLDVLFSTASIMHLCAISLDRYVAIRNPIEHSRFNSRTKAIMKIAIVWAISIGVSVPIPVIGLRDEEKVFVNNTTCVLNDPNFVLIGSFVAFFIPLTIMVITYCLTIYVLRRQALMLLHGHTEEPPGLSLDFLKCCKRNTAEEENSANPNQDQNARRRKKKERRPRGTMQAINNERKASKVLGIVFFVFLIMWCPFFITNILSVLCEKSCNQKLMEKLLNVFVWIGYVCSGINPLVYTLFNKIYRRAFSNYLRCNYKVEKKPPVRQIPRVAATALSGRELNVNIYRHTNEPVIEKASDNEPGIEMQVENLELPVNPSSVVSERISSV
From the text: as §2

[4] = molecular target: 5-HT2B receptor (Homo sapiens, UniProt P41595); assay: Receptor affinity, 5-HT2B; format: binding
From the text: as §2

[5] = Phase 1 multiple-ascending dose study, pharmacokinetics; format: in vivo, human; settings: for accumulation ratio as measured by AUCtau: 60 and 80 mg Compound 1 TID, after 7 days
Protocol: (§3) A phase 1, randomized, double-blind, placebo-controlled, multiple-ascending dose-escalation study was conducted to assess the safety, tolerability, PD, and steady state PK of Compound 1 from 5 to 80 mg administered orally TID for 7 days in a total of 50 healthy subjects.

[6] = test system: cold-induced vasoconstriction in the rabbit foot; assay: Intra-arterial dosing in anesthetized rabbits, peripheral cooling of hind foot; format: in vivo, New Zealand White rabbit; settings: intra-arterial 0.05 then 0.1 mg/kg; left hind foot in 40° C., then 15° C. water bath
Protocol: A study was conducted to assess the effects of intra-arterial dosing of Compound 1 and ketanserin on body temperature, peripheral cooling and peripheral blood flow in naïve anesthetized male New Zealand White rabbits.
Formulations of each test compound were prepared by adding saline and vortexing and sonicating until a clear solution was obtained.
Rabbits were sedated with ketamine/xylazine (25/5 mg/kg, subcutaneous) and then intubated and anesthetized with 1-2% isoflurane driven by 100% oxygen (1-2 L/min). Animals were mechanically ventilated and normal body temperature (38-40° C.) was maintained using an external source of heat (e.g., circulating water blanket, heated surgery table). The femoral incision site was infiltrated with 1 mg/kg ID bupivacaine. A catheter for dosing was placed via cutdown in the left femoral artery. […]
At the start of Dose 1 administration, each rabbit's left hind foot was placed in a water bath set to maintain approximately 40° C. […] At 30 minutes post dose start of Dose 2, in Groups 4-6 only, each rabbit's left hind foot was removed to room temperature, monitored and dosed for an additional 15 minutes.
Average percent change of each temperature and blood flow between baseline and each minute of dose administration was determined relative to time-matched vehicle control data.

[7] = test system: Raynaud phenomenon attacks; settings: intravenous, over 9 weeks, cited from earlier work
[8] = test system: Raynaud phenomenon attacks; settings: intravenous; cited from earlier work
[9] = test system: 5-HT-mediated amplification of platelet aggregation; assay: Phase 1 single-dose escalation study, platelet aggregation with ADP with and without 5-HT; format: in vivo, human; settings: single oral doses above 1 mg
Protocol: as §1
(§4) PD assessment consisted of measuring pre- and post-dose platelet aggregation using an in vitro assay with ADP with and without 5-HT. The degree of thrombin receptor activating peptide (TRAP)-induced platelet aggregation inhibition between groups was similar. However, Compound 1 inhibited 5-HT-mediated amplification of platelet aggregation at doses above 1 mg.

[10] = test system: ex vivo 5-HT-mediated amplification of platelet aggregation; assay: Phase 1 multiple-ascending dose study, ex vivo platelet aggregation; format: in vivo, human
Protocol: as §3
Administration of Compound 1 inhibited ex vivo 5-HT-mediated amplification of platelet aggregation.

[11] = test system: thrombin receptor activating peptide (TRAP)-induced platelet aggregation; assay: Phase 1 single-dose escalation study, TRAP-induced platelet aggregation; format: in vivo, human; settings: single oral dose, versus placebo groups
Protocol: as §1, §4

5-HT2B receptor, sequence (P41595 whole entry): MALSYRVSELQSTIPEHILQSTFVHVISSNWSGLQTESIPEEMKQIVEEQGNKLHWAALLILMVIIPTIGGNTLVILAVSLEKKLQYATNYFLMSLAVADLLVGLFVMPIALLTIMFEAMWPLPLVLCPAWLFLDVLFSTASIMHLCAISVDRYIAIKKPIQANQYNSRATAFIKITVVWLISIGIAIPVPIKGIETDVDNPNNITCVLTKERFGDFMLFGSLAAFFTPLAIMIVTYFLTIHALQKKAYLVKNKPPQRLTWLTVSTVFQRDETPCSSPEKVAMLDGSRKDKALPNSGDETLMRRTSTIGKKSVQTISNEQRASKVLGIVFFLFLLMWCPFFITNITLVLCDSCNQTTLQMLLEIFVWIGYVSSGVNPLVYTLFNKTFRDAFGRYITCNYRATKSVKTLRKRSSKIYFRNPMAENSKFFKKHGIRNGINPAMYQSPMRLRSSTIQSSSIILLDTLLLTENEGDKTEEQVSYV
human 5-HT2A, sequence (P28223 whole entry): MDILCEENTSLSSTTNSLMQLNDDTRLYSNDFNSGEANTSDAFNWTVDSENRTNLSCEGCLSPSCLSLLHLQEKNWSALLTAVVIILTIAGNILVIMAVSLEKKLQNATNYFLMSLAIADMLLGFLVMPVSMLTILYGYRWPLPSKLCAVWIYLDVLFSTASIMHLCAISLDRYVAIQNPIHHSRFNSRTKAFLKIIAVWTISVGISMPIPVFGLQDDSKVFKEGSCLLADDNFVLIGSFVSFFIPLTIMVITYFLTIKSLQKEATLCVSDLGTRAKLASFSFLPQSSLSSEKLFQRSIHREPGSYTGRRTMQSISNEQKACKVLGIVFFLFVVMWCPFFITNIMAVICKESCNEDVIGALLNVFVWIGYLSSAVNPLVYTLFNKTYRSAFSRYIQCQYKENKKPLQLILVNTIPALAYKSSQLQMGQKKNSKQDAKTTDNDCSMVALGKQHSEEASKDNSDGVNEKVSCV

| SMILES | affinity for human 5-HT2A [2] | affinity for 5-HT2C receptor [3] | affinity for 5-HT2B receptor [4] | accumulation ratio as measured by AUCtau [5] | half-life compared with parent compound [1] | effect on cold-induced vasoconstriction in the rabbit foot [6] | further results |
| --- | --- | --- | --- | --- | --- | --- | --- |
| O=C(c1ccc(F)cc1)C1CCN(CCn2c(=O)[nH]c3ccccc3c2=O)CC1 [ketanserin, reference compound] | – | – | – | – | – | partially reduced | – |
| CC#CCC(C)[C@H](O)/C=C/[C@@H]1[C@H]2C/C(=C/CCCC(=O)O)C[C@H]2C[C@H]1O (stereo partly drawn) [iloprost] | – | – | – | – | – | – | improvement of severity score ([7]; versus 19.7% in comparator): 34.8%; reduction of weekly Raynaud phenomenon attacks ([7]; versus 22.2% in comparator): 39.1% |
| CCCCC[C@H](O)/C=C/[C@@H]1[C@H]2C/C(=C/CCCC(=O)O)O[C@H]2C[C@H]1O [epoprostenol] | – | – | – | – | – | – | frequency and duration of Raynaud phenomenon attacks [8]: reduced frequency and duration of Raynaud phenomenon attacks; time after the last infusion at which loss in clinical response was observed [8]: 8-10 weeks |

The next lines start with results.

| affinity for human 5-HT2A [2] | affinity for 5-HT2C receptor [3] | affinity for 5-HT2B receptor [4] | accumulation ratio as measured by AUCtau [5] | SMILES | half-life compared with parent compound [1] | effect on cold-induced vasoconstriction in the rabbit foot [6] | further results |
| --- | --- | --- | --- | --- | --- | --- | --- |
| high affinity | no appreciable affinity | no appreciable affinity | approximately 2 | COc1cccc(C(=O)Nc2ccc(OCCNCCO)c(-c3ccnn3C)c2)c1 [Compound M1, N-(4-(2-(2-hydroxyethylamino)ethoxy)-3-(1-methyl-1H-pyrazol-5-yl)phenyl)-3-methoxybenzamide] | longer half-lives than the parent compound | – | – |
| high affinity | no appreciable affinity | no appreciable affinity | approximately 2 | COc1cccc(C(=O)Nc2ccc(OCCN)c(-c3ccnn3C)c2)c1 [Compound M2, N-(4-(2-aminoethoxy)-3-(1-methyl-1H-pyrazol-5-yl)phenyl)-3-methoxybenzamide] | longer half-lives than the parent compound | – | – |
| high affinity | no appreciable affinity | no appreciable affinity | – | COc1cccc(C(=O)Nc2ccc(OCCN3CCOCC3)c(-c3ccnn3C)c2)c1 [Compound 1, 3-methoxy-N-[3-(2-methylpyrazol-3-yl)-4-(2-morpholin-4-ylethoxy)phenyl]benzamide] | – | partially reduced | 5-HT-mediated amplification of platelet aggregation [9]: inhibited; half-life as Compound 1 dose was escalated ([1]; single oral dose 1 to 320 mg): half-life increased; dose proportionality of plasma exposure measures ([1]; single oral dose 1 to 320 mg, healthy subjects): greater than dose proportional; absorption ([1]; single oral dose 1 to 320 mg, healthy subjects, all doses): rapidly absorbed; extent of inhibition of ex vivo 5-HT-mediated amplification of platelet aggregation ([10]; 60 mg and 80 mg doses, following dosing on Days 1, 4, and 7): essentially maximal; ex vivo 5-HT-mediated amplification of platelet aggregation ([10]; 5 to 80 mg oral TID for 7 days): inhibited; degree of TRAP-induced platelet aggregation inhibition between groups [11]: similar; dose proportionality of exposure as measured by AUC ([5]; 5 and 10 mg TID): dose proportional; absorption ([5]; 5 to 80 mg oral TID for 7 days, all doses): rapidly absorbed; dose proportionality of exposure as measured by AUC ([5]; 40, 60, and 80 mg TID, Day 1 and Day 7): greater than dose proportional; Cmax and AUC accumulation ratio ([5]; all doses, Day 7 compared with Day 1, TID for 7 days): less than 2 |
